Data taken from patent US12077503B2, “Substituted cyclic amides and their use as herbicides” (FMC CORPORATION, priority 2015, dated 2024).

Key:
Assay type in all cases: in vivo
[1] = tested on: barnyardgrass (Echinochloa crus-galli); experiment: Test G Pre-Emergence Protocol; settings: Echinochloa crus-galli, pre-emergence, 312 h, evaluated after 13 days; for pest or weed control at 15.625 g/ha: 15.625 g ai/ha; for pest or weed control at 15.625 g/ha / pest or weed control at 250 g/ha: read-out: Barnyardgrass damage rating (100=total damage to plant; 0=no damage to plant); for pest or weed control at 62.5 g/ha: 62.5 g ai/ha, 100=total damage to plant, 0=no damage to plant, read-out: Barnyardgrass damage rating; for pest or weed control at 250 g/ha: 250 g ai/ha
In short: (§1)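 Under a 24/16° C day/night regime with 14 h light and 65% humidity, sown pots were sprayed after one day with compound (15.625, 62.5 or 250 g/ha; 50:50 acetone/water, 0.5% Tween 20). Damage was assessed visually 13 days later, 0 to 100.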

corn (Zea mays) [2] = experiment: Test G Pre-Emergence Protocol; settings: Zea mays, pre-emergence, 312 h, evaluated after 13 days; for plant injury at 15.625 g/ha: 15.625 g ai/ha; for plant injury at 15.625 g/ha / plant injury at 250 g/ha: read-out: Corn damage rating (100=total damage to plant; 0=no damage to plant); for plant injury at 62.5 g/ha: 62.5 g ai/ha, 100=total damage to plant, 0=no damage to plant, read-out: Corn damage rating; for plant injury at 250 g/ha: 250 g ai/ha
In short: as §1

[3] = tested on: giant foxtail (Setaria faberi); experiment: Test G Pre-Emergence Protocol; settings: Setaria faberi, pre-emergence, 312 h, evaluated after 13 days; for pest or weed control at 15.625 g/ha: 15.625 g ai/ha; for pest or weed control at 15.625 g/ha / pest or weed control at 250 g/ha: read-out: Foxtail, Giant damage rating (100=total damage to plant; 0=no damage to plant); for pest or weed control at 62.5 g/ha: 62.5 g ai/ha, 100=total damage to plant, 0=no damage to plant, read-out: Foxtail, Giant damage rating; for pest or weed control at 250 g/ha: 250 g ai/ha
In short: as §1

[4] = tested on: ivy-leaved morning glory (Ipomoea hederacea); experiment: Test G Pre-Emergence Protocol; settings: Ipomoea, pre-emergence, 312 h, evaluated after 13 days; for pest or weed control at 15.625 g/ha: 15.625 g ai/ha; for pest or weed control at 15.625 g/ha / pest or weed control at 250 g/ha: read-out: Morningglory, Ivy-leaved damage rating (100=total damage to plant; 0=no damage to plant); for pest or weed control at 62.5 g/ha: 62.5 g ai/ha, 100=total damage to plant, 0=no damage to plant, read-out: Morningglory, Ivy-leaved damage rating; for pest or weed control at 250 g/ha: 250 g ai/ha
In short: as §1

[5] = tested on: redroot pigweed (Amaranthus retroflexus); experiment: Test G Pre-Emergence Protocol; settings: Amaranthus retroflexus, pre-emergence, 312 h, evaluated after 13 days; for pest or weed control at 15.625 g/ha: 15.625 g ai/ha; for pest or weed control at 15.625 g/ha / pest or weed control at 250 g/ha: read-out: Pigweed, Redroot damage rating (100=total damage to plant; 0=no damage to plant); for pest or weed control at 62.5 g/ha: 62.5 g ai/ha, 100=total damage to plant, 0=no damage to plant, read-out: Pigweed, Redroot damage rating; for pest or weed control at 250 g/ha: 250 g ai/ha
In short: as §1

[6] = tested on: velvetleaf (Abutilon theophrasti); experiment: Test G Pre-Emergence Protocol; settings: Abutilon theophrasti, pre-emergence, 312 h, evaluated after 13 days; for pest or weed control at 15.625 g/ha: 15.625 g ai/ha; for pest or weed control at 15.625 g/ha / pest or weed control at 250 g/ha: read-out: Velvetleaf damage rating (100=total damage to plant; 0=no damage to plant); for pest or weed control at 62.5 g/ha: 62.5 g ai/ha, 100=total damage to plant, 0=no damage to plant, read-out: Velvetleaf damage rating; for pest or weed control at 250 g/ha: 250 g ai/ha
In short: as §1

[7] = tested on: barnyardgrass (Echinochloa crus-galli); experiment: Test G Post-Emergence Protocol; settings: Echinochloa crus-galli, post-emergence, 312 h, read-out: Barnyardgrass damage rating; for pest or weed control at 15.625 g/ha: 15.625 g ai/ha, evaluated after 13 days (100=total damage to plant; 0=no damage to plant); for pest or weed control at 62.5 g/ha: 62.5 g ai/ha; for pest or weed control at 62.5 g/ha / pest or weed control at 250 g/ha: evaluated after 13 days, 100=total damage to plant, 0=no damage to plant; for pest or weed control at 250 g/ha: 250 g ai/ha
In short: (§2)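 A glasshouse post-emergence test: 8-day-old plants sprayed at 15.625, 62.5 or 250 g/ha, then grown at 24/16 °C day/night with 14 h light and 65% humidity. Damage rated 13 days later, 0–100.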

corn (Zea mays) [8] = experiment: Test G Post-Emergence Protocol; settings: Zea mays, post-emergence, 312 h, read-out: Corn damage rating; for plant injury at 15.625 g/ha: 15.625 g ai/ha, evaluated after 13 days (100=total damage to plant; 0=no damage to plant); for plant injury at 62.5 g/ha: 62.5 g ai/ha; for plant injury at 62.5 g/ha / plant injury at 250 g/ha: evaluated after 13 days, 100=total damage to plant, 0=no damage to plant; for plant injury at 250 g/ha: 250 g ai/ha
In short: as §2

[9] = tested on: giant foxtail (Setaria faberi); experiment: Test G Post-Emergence Protocol; settings: Setaria faberi, post-emergence, 312 h, read-out: Foxtail, Giant damage rating; for pest or weed control at 15.625 g/ha: 15.625 g ai/ha, evaluated after 13 days (100=total damage to plant; 0=no damage to plant); for pest or weed control at 62.5 g/ha: 62.5 g ai/ha; for pest or weed control at 62.5 g/ha / pest or weed control at 250 g/ha: evaluated after 13 days, 100=total damage to plant, 0=no damage to plant; for pest or weed control at 250 g/ha: 250 g ai/ha
In short: as §2

[10] = tested on: ivy-leaved morning glory (Ipomoea hederacea); experiment: Test G Post-Emergence Protocol; settings: Ipomoea, post-emergence, 312 h, read-out: Morningglory, Ivy-leaved damage rating; for pest or weed control at 15.625 g/ha: 15.625 g ai/ha, evaluated after 13 days (100=total damage to plant; 0=no damage to plant); for pest or weed control at 62.5 g/ha: 62.5 g ai/ha; for pest or weed control at 62.5 g/ha / pest or weed control at 250 g/ha: evaluated after 13 days, 100=total damage to plant, 0=no damage to plant; for pest or weed control at 250 g/ha: 250 g ai/ha
In short: as §2

[11] = tested on: redroot pigweed (Amaranthus retroflexus); experiment: Test G Post-Emergence Protocol; settings: Amaranthus retroflexus, post-emergence, 312 h, read-out: Pigweed, Redroot damage rating; for pest or weed control at 15.625 g/ha: 15.625 g ai/ha, evaluated after 13 days (100=total damage to plant; 0=no damage to plant); for pest or weed control at 62.5 g/ha: 62.5 g ai/ha; for pest or weed control at 62.5 g/ha / pest or weed control at 250 g/ha: evaluated after 13 days, 100=total damage to plant, 0=no damage to plant; for pest or weed control at 250 g/ha: 250 g ai/ha
In short: as §2

[12] = tested on: velvetleaf (Abutilon theophrasti); experiment: Test G Post-Emergence Protocol; settings: Abutilon theophrasti, post-emergence, 312 h, read-out: Velvetleaf damage rating; for pest or weed control at 15.625 g/ha: 15.625 g ai/ha, evaluated after 13 days (100=total damage to plant; 0=no damage to plant); for pest or weed control at 62.5 g/ha: 62.5 g ai/ha; for pest or weed control at 62.5 g/ha / pest or weed control at 250 g/ha: evaluated after 13 days, 100=total damage to plant, 0=no damage to plant; for pest or weed control at 250 g/ha: 250 g ai/ha
In short: as §2

Row | SMILES | pest or weed control at 15.625 g/ha [1] [%] | pest or weed control at 62.5 g/ha [1] [%] | pest or weed control at 250 g/ha [1] [%] | plant injury at 15.625 g/ha (corn (Zea mays) [2]) [%] | plant injury at 62.5 g/ha (corn (Zea mays) [2]) [%] | plant injury at 250 g/ha (corn (Zea mays) [2]) [%] | pest or weed control at 15.625 g/ha [3] [%] | pest or weed control at 62.5 g/ha [3] [%] | pest or weed control at 250 g/ha [3] [%] | pest or weed control at 15.625 g/ha [4] [%] | pest or weed control at 62.5 g/ha [4] [%] | pest or weed control at 250 g/ha [4] [%] | pest or weed control at 15.625 g/ha [5] [%] | pest or weed control at 62.5 g/ha [5] [%] | pest or weed control at 250 g/ha [5] [%] | pest or weed control at 15.625 g/ha [6] [%] | pest or weed control at 62.5 g/ha [6] [%] | pest or weed control at 250 g/ha [6] [%] | pest or weed control at 15.625 g/ha [7] [%] | pest or weed control at 62.5 g/ha [7] [%] | other results
1 | C=Cc1cc(Oc2ccccc2)cc([C@@H]2CN(C)C(=O)[C@H]2C(=O)Nc2cccc(F)c2F)c1 (racemic) [Compound 1826] | 0 | 70 | 80 | 10 | 10 | 20 | 20 | 80 | 90 | 0 | 0 | 0 | 0 | 0 | 20 | 0 | 0 | 0 | 0 | 10 | pest or weed control at 250 g/ha [7]: 70%; plant injury at 15.625 g/ha (corn (Zea mays) [8]): 0%; plant injury at 62.5 g/ha (corn (Zea mays) [8]): 20%; plant injury at 250 g/ha (corn (Zea mays) [8]): 50%; pest or weed control at 15.625 g/ha [9]: 0%; pest or weed control at 62.5 g/ha [9]: 40%; pest or weed control at 250 g/ha [9]: 80%; pest or weed control at 15.625 g/ha [10]: 0%; pest or weed control at 62.5 g/ha [10]: 20%; pest or weed control at 250 g/ha [10]: 10%; pest or weed control at 15.625 g/ha [11]: 0%; pest or weed control at 62.5 g/ha [11]: 0%; pest or weed control at 250 g/ha [11]: 50%; pest or weed control at 15.625 g/ha [12]: 0%; pest or weed control at 62.5 g/ha [12]: 0%; pest or weed control at 250 g/ha [12]: 10%
2 | CN1C[C@H](c2ccc(C(F)(F)F)cc2)[C@@H](C(=O)Nc2ccc3ncccc3n2)C1=O (racemic) [Compound 1833] | 0 | 0 | 0 | 0 | 0 | 0 | 0 | 0 | 0 | 0 | 0 | 0 | 0 | 0 | 0 | 0 | 0 | 0 | 0 | 0 | pest or weed control at 250 g/ha [7]: 0%; plant injury at 15.625 g/ha (corn (Zea mays) [8]): 0%; plant injury at 62.5 g/ha (corn (Zea mays) [8]): 0%; plant injury at 250 g/ha (corn (Zea mays) [8]): 0%; pest or weed control at 15.625 g/ha [9]: 0%; pest or weed control at 62.5 g/ha [9]: 0%; pest or weed control at 250 g/ha [9]: 0%; pest or weed control at 15.625 g/ha [10]: 0%; pest or weed control at 62.5 g/ha [10]: 0%; pest or weed control at 250 g/ha [10]: 0%; pest or weed control at 15.625 g/ha [11]: 0%; pest or weed control at 62.5 g/ha [11]: 0%; pest or weed control at 250 g/ha [11]: 0%; pest or weed control at 15.625 g/ha [12]: 0%; pest or weed control at 62.5 g/ha [12]: 0%; pest or weed control at 250 g/ha [12]: 0%
3 | Cc1ccc(C2CN(C)C(=O)C2C(=O)Nc2cccc(F)c2F)cc1C#N (stereo not drawn) [Compound 1687] | 40 | 70 | 80 | 0 | 40 | 90 | 60 | 70 | 90 | 0 | 40 | 50 | 0 | 10 | 30 | 0 | 0 | 10 | 0 | 50 | pest or weed control at 250 g/ha [7]: 80%; plant injury at 15.625 g/ha (corn (Zea mays) [8]): 10%; plant injury at 62.5 g/ha (corn (Zea mays) [8]): 40%; plant injury at 250 g/ha (corn (Zea mays) [8]): 90%; pest or weed control at 15.625 g/ha [9]: 60%; pest or weed control at 62.5 g/ha [9]: 80%; pest or weed control at 250 g/ha [9]: 80%; pest or weed control at 15.625 g/ha [10]: 20%; pest or weed control at 62.5 g/ha [10]: 60%; pest or weed control at 250 g/ha [10]: 70%; pest or weed control at 15.625 g/ha [11]: 40%; pest or weed control at 62.5 g/ha [11]: 40%; pest or weed control at 250 g/ha [11]: 50%; pest or weed control at 15.625 g/ha [12]: 40%; pest or weed control at 62.5 g/ha [12]: 40%; pest or weed control at 250 g/ha [12]: 50%
